Laboratory results as given in paper PMC4214760, “Host Cofactors and Pharmacologic Ligands Share an Essential Interface in HIV-1 Capsid That Is Lost upon Disassembly” (PLoS Pathogens, 2014).
Entries after “also recorded” stand apart in the source; their conditions may differ. Like-named read-outs stand apart in the source and are kept apart here. Ends that are not written are not given here.

Key:
HIV-1 CA hexamer [1] = target: T1, HIV-1 CA hexamer (Human immunodeficiency virus type 1 group M subtype B, UniProt P12493, A146C/E177C/M317A/W316A); assay: biochemical; format: binding
T1 construct: produced by assembly of recombinant CA containing four amino acid substitutions; made in house
Procedure: (§1) Hexamer protein was dialysed against ITC buffer (50 mM TRIS pH 7.4, 150 mM NaCl) for experiments using intact hexamer, or ITC buffer containing 1 mM DTT for experiments with monomerized hexamer. The monomeric status of hexamer dialysed against buffer containing DTT was confirmed by size exclusion chromatography. Peptides were dissolved in the same buffer as hexamer; NUP153 peptides were first dissolved in DMSO to a concentration of 8 mM before diluting in buffer. Drugs were dissolved in DMSO to a concentration of 5 mM, before diluting in buffer. In all cases, hexamer (in the syringe) was titrated into the peptide or drug ligand (in the cell), with the exception of the competition experiments, whereby peptide (400 µM) was titrated into hexamer (30 µM) in the presence of drug (100 µM). Typical concentrations used were 600–800 µM hexamer titrated against 60–80 µM peptide unless indicated otherwise, and 200 µM hexamer titrated against 30 µM drug. ITC experiments were conducted on a MicroCal ITC-200, and data analyzed using Origin data analysis software (MicroCal).

monomeric HIV-1 CA = target: T2, monomeric HIV-1 CA (Human immunodeficiency virus type 1 group M subtype B, UniProt P12493, A146C/E177C/M317A/W316A); assay: ITC binding to monomeric CA (hexamer monomerized with 1 mM DTT)
T2 construct: produced by assembly of recombinant CA containing four amino acid substitutions; made in house
Procedure: as §1

HIV-1 CA hexamer [2] = target: T1, HIV-1 CA hexamer; assay: ITC competition: cofactor peptide titrated into hexamer in the presence of drug; format: binding
Procedure: as §1

[3] = system: VSV-G pseudotyped GFP-encoding HIV-1 vector; format: cell-based
[4] = system: HIV-1 reverse transcription; format: cell-based
[5] = read-out: Kd (approximate), hexamer binding of CPSF6 and NUP153 mutant peptides, ITC, Hex 0.76-1.122 mM into peptide 0.076-0.112 mM, NB = no binding detectable

## CN(C(=O)[C@H](Cc1ccccc1)NC(=O)Cc1ccsc1)c1ccccc1 [PF74_5]
HIV-1 CA hexamer [1]; ITC
  Fold reduction in affinity to hexamer relative to PF74: 54 fold

## TNNSPSGVFAFGANSST [Nup153pep T1416A]
HIV-1 CA hexamer [1]; [5]
  Kd: > 700 µM

## TNNSPSGVFTAGANSST [Nup153pep F1417A]
HIV-1 CA hexamer [1]; [5]
  Kd: > 700 µM

## PVLFPRQPFGQPPLG [CPSF6pep G318R]
HIV-1 CA hexamer [1]; [5]
  Kd: > 700 µM

## CN(C(=O)[C@H](Cc1ccccc1)NC(=O)CC1CCOC1)c1ccccc1 (stereo partly shown) [PF74_6]
HIV-1 CA hexamer [1]; ITC
  Fold reduction in affinity to hexamer relative to PF74: > 1000 fold

## CN(C(=O)[C@H](Cc1ccccc1)NC(=O)Cc1ccoc1)c1ccccc1 [PF74_4]
HIV-1 CA hexamer [1]; ITC
  Fold reduction in affinity to hexamer relative to PF74: 94 fold

## CN(C(=O)[C@H](Cc1ccccc1)NC(=O)Cc1cc[nH]c1)c1ccccc1 [PF74_3]
HIV-1 CA hexamer [1]
  Kd: 5.5 µM
HIV-1 CA hexamer [1]; ITC
  Fold reduction in affinity to hexamer relative to PF74: 46 fold

## PVLFDGQPFGQPPLG [CPSF6pep P317D]
HIV-1 CA hexamer [1]; [5]
  Kd: > 700 µM

## PF74
Monomeric HIV-1 CA
  N (stoichiometry), binding to monomeric CA: 0.7
  ΔH, binding to monomeric CA: -67.4 kJ/mol
  ΔS, binding to monomeric CA: -29.0 (cal/mol)/deg
HIV-1 CA hexamer [2]
  Competition with CPSF6 peptide for binding to hexamer: inhibit CPSF6 binding to hexamer
  Competition with NUP153 peptide for binding to hexamer: prevent NUP153 binding to hexamer
[3]
  Reversal of inhibition of infection on wash out: completely; also recorded: partially
  Time post-infection by which almost all efficacy was lost when addition was delayed: ≤ 10 h
HIV-1 CA hexamer [1]
  Fold higher affinity to hexamer than BI-2: 10 fold
  Fold increase in affinity to hexamer compared with monomeric CA: 22 fold
  N (stoichiometry), binding to HIV-1 hexamer: 0.7
  ΔH, binding to HIV-1 hexamer: -37.7 kJ/mol
  ΔS, binding to HIV-1 hexamer: 1.20 (cal/mol)/deg
[4]
  Reversibility of block to reverse transcription on wash out: largely irreversible

## PVLFPGQPAGQPPLG [CPSF6pep F321A]
HIV-1 CA hexamer [1]; [5]
  Kd: > 700 µM

## TNNSPAGVFTFGANSST [Nup153pep S1412A]
HIV-1 CA hexamer [1]
  Kd: ~130 µM

## TNNSPSGVATFGANSST [Nup153pep F1415A]
HIV-1 CA hexamer [1]; [5]
  Kd: > 700 µM
